Source: patent US20190224166A1, “Compositions and Methods for Treating Muscle Loss” (Augusta University Research Institute, Inc., priority 2018, published 2019)

Test system: quadriceps muscle
Test: Proteomic analysis of quadriceps muscle of aged mice treated with 1-methyl-D-tryptophan (Table 1, TOPPGENE enrichment)
Format: in vivo
Experimental: Female mice 22 months of age were obtained from the National Institute on Aging and treated with saline (vehicle) or 1-methyl-D-tryptophan (1-MT, Sigma, 452483, lot#MKBZ1441V) at a low dose (10 mg/kg BW) or at a high dose (100 mg/kg BW). Mice were treated daily for 4 weeks. Treatments were administered i.p. with an injection volume of 0.2 ml following IACUC approved procedures. Mice were euthanized by CO2 overdose and muscles harvested for analysis. One quadriceps muscle was snap frozen for proteomics and the other quadriceps muscle fixed in buffered formalin for paraffin embedding and trichrome staining. The tibialis anterior was placed in PBS for amplex red assay.
The IDO inhibitor, 1-methyl-D-tryptophan, blocks kynurenine production and reduces levels of ROS in muscle.

1MT vs Control: E3 ubiquitin-protein ligase UBR4 (A2AN08, GN = Ubr4): 0.5 | 1MT vs Control: Ryanodine receptor 1 (E9PZQ0, GN = Ryr1): 0.6614 | 1MT vs Control: Hexokinase-2 (O08528, GN = Hk2): 0.3158 | 1MT vs Control: Dihydrolipoyl dehydrogenase, mitochondrial (O08749, GN = Dld): 0.8444 | 1MT vs Control: Branched-chain-amino-acid aminotransferase, mitochondrial (O35855, GN = Bcat2): 0.5 | 1MT vs Control: Polymerase I and transcript release factor (O54724, GN = Ptrf): 0.9 | 1MT vs Control: Phosphoglycerate mutase 2 (O70250, GN = Pgam2): 0.8457 | 1MT vs Control: Aspartate aminotransferase, cytoplasmic (P05201, GN = Got1): 0.8115 | 1MT vs Control: Aspartate aminotransferase, mitochondrial (P05202, GN = Got2): 0.6944 | 1MT vs Control: Glucose-6-phosphate isomerase (P06745, GN = Gpi): 0.8424 | 1MT vs Control: Malate dehydrogenase, mitochondrial (P08249, GN = Mdh2): 0.915 | 1MT vs Control: Superoxide dismutase [Mn], mitochondrial (P09671, GN = Sod2): 0.45 | 1MT vs Control: Fatty acid-binding protein, heart (P11404, GN = Fabp3): 0.6667 | 1MT vs Control: Calcium/calmodulin-dependent protein kinase type II subunit alpha (P11798, GN = Camk2a): 0.4444 | 1MT vs Control: cAMP-dependent protein kinase type II-alpha regulatory subunit (P12367, GN = Prkar2a): 0.8333 | 1MT vs Control: Malate dehydrogenase, cytoplasmic (P14152, GN = Mdh1): 0.7895 | 1MT vs Control: Selenium-binding protein 1 (P17563, GN = Selenbp1): 0.625 | 1MT vs Control: Glutathione S-transferase P 1 (P19157, GN = Gstp1): 0.7436 | 1MT vs Control: Thioredoxin-dependent peroxide reductase, mitochondrial (P20108, GN = Prdx3): 0.6875 | 1MT vs Control: Leukotriene A-4 hydrolase (P24527, GN = Lta4h): 0.6667 | 1MT vs Control: Retinal dehydrogenase 1 (P24549, GN = Aldh1a1): 0.375 | 1MT vs Control: Glutamate dehydrogenase 1, mitochondrial (P26443, GN = Glud1): 0.75 | 1MT vs Control: 26S proteasome non-ATPase regulatory subunit 7 (P26516, GN = Psmd7): 0.8333 | 1MT vs Control: Adenylosuccinate synthetase isozyme 1 (P28650, GN = Adssl1): 0.8583 | 1MT vs Control: Pyruvate dehydrogenase E1 component subunit alpha, somatic form, mitochondrial (P35486, GN = Pdha1): 0.5714 | 1MT vs Control: Enoyl-CoA delta isomerase 1, mitochondrial (P42125, GN = Eci1): 0.3333 | 1MT vs Control: Medium-chain specific acyl-CoA dehydrogenase, mitochondrial (P45952, GN = Acadm): 0.75 | 1MT vs Control: Carnitine O-acetyltransferase (P47934, GN = Crat): 0.3913 | 1MT vs Control: ADP/ATP translocase 1 (P48962, GN = Slc25a4): 0.4561 | 1MT vs Control: Long-chain specific acyl-CoA dehydrogenase, mitochondrial (P51174, GN = Acadl): 0.3269 | 1MT vs Control: Isocitrate dehydrogenase [NADP], mitochondrial (P54071, GN = Idh2): 0.3684 | 1MT vs Control: Adenylosuccinate lyase (P54822, GN = Adsl): 0.5172 | 1MT vs Control: Adenosine kinase (P55264, GN = Adk): 0.4545 | 1MT vs Control: Serine/threonine-protein phosphatase PP1-beta catalytic subunit (P62141, GN = Ppp1cb): 0.2857 | 1MT vs Control: Nuclease-sensitive element-binding protein 1 (P62960, GN = Ybx1): 0.6 | 1MT vs Control: Guanine nucleotide-binding protein subunit beta-2-like 1 (P68040, GN = Gnb2l1): 0.8889 | 1MT vs Control: Histidine triad nucleotide-binding protein 1 (P70349, GN = Hint1): 0.8667 | 1MT vs Control: Isocitrate dehydrogenase [NAD] subunit gamma 1, mitochondrial (P70404, GN = Idh3g): 0.4286 | 1MT vs Control: Fructose-1,6-bisphosphatase isozyme 2 (P70695, GN = Fbp2): 0.6078 | 1MT vs Control: Histone-lysine N-methyltransferase Smyd1 (P97443, GN = Smyd1): 0.8143 | 1MT vs Control: Fumarate hydratase, mitochondrial (P97807, GN = Fh): 0.7414 | 1MT vs Control: Acyl-protein thioesterase 1 (P97823, GN = Lypla1): 0.5 | 1MT vs Control: AMP deaminase 1 (Q3V1D3, GN = Ampd1): 0.86 | 1MT vs Control: UDP-glucose: glycoprotein glucosyltransferase 1 (Q6P5E4, GN = Uggt1): 0.2857 | 1MT vs Control: Creatine kinase S-type, mitochondrial (Q6P8J7, GN = Ckmt2): 0.3977 | 1MT vs Control: Sodium/potassium-transporting ATPase subunit alpha-2 (Q6PIE5, GN = Atp1a2): 0.5143 | 1MT vs Control: Calcium-binding mitochondrial carrier protein Aralar1 (Q8BH59, GN = Slc25a12): 0.3939 | 1MT vs Control: EH domain-containing protein 2 (Q8BH64, GN = Ehd2): 0.5714 | 1MT vs Control: Dihydrolipoyllysine-residue acetyltransferase component of pyruvate dehydrogenase complex, mitochondrial (Q8BMF4, GN = Dlat): 0.6053 | 1MT vs Control: Trifunctional enzyme subunit alpha, mitochondrial (Q8BMS1, GN = Hadha): 0.561 | 1MT vs Control: Isoleucine--tRNA ligase, cytoplasmic (Q8BU30, GN = Iars): 0.75 | 1MT vs Control: Fructose-2,6-bisphosphatase TIGAR (Q8BZA9, GN = Tigar): 0.6944 | 1MT vs Control: Succinate dehydrogenase [ubiquinone] flavoprotein subunit, mitochondrial (Q8K2B3, GN = Sdha): 0.7037 | 1MT vs Control: 5-oxoprolinase (Q8K010, GN = Oplah): 0.75 | 1MT vs Control: Acetyl-CoA acetyltransferase, mitochondrial (Q8QZT1, GN = Acat1): 0.9231 | 1MT vs Control: Sarcoplasmic/endoplasmic reticulum calcium ATPase 1 (Q8R429, GN = Atp2a1): 0.9045 | 1MT vs Control: Carboxylesterase 1D (Q8VCT4, GN = Ces1d): 0.8571 | 1MT vs Control: G-protein coupled receptor 98 (Q8VHN7, GN = Gpr98): 0.6667 | 1MT vs Control: 2,4-dienoyl-CoA reductase, mitochondrial (Q9CQ62, GN = Decr1): 0.375 | 1MT vs Control: Succinyl-CoA: 3-ketoacid coenzyme A transferase 1, mitochondrial (Q9D0K2, GN = Oxct1): 0.75 | 1MT vs Control: Cytosolic non-specific dipeptidase (Q9D1A2, GN = Cndp2): 0.8 | 1MT vs Control: Protein-cysteine N-palmitoyltransferase HHAT-like protein (Q9D1G3, GN = Hhatl): 0.4545 | 1MT vs Control: Dihydrolipoyllysine-residue succinyltransferase component of 2-oxoglutarate dehydrogenase complex, mitochondrial (Q9D2G2, GN = Dlst): 0.4857 | 1MT vs Control: Ribose-phosphate pyrophosphokinase 1 (Q9D7G0, GN = Prps1): 0.8723 | 1MT vs Control: Pyruvate dehydrogenase E1 component subunit beta, mitochondrial (Q9D051, GN = Pdhb): 0.6279 | 1MT vs Control: 14 kDa phosphohistidine phosphatase (Q9DAK9, GN = Phpt1): 0.75 | 1MT vs Control: Trans-1,2-dihydrobenzene-1,2-diol dehydrogenase (Q9DBB8, GN = Dhdh): 0.8333 | 1MT vs Control: Methylmalonate-semialdehyde dehydrogenase [acylating], mitochondrial (Q9EQ20, GN = Aldh6a1): 0.65 | 1MT vs Control: Ubiquitin carboxyl-terminal hydrolase 14 (Q9JMA1, GN = Usp14): 0.8 | 1MT vs Control: Prolyl endopeptidase (Q9QUR6, GN = Prep): 0.5 | 1MT vs Control: S-formylglutathione hydrolase (Q9R0P3, GN = Esd): 0.8929 | 1MT vs Control: Glycogen phosphorylase, muscle form (Q9WUB3, GN = Pygm): 0.9185 | 1MT vs Control: Succinyl-CoA ligase [ADP-forming] subunit beta, mitochondrial (Q9Z2I9, GN = Sucla2): 0.52 | 1MT vs Control: NADH dehydrogenase [ubiquinone] flavoprotein 1, mitochondrial (Q91YT0, GN = Ndufv1): 0.4
SMILES: Cn1cc(C[C@@H](N)C(=O)O)c2ccccc21 [1MT]
1MT vs Control: Peroxiredoxin-6 (O08709, GN = Prdx6): 0.7083 | 1MT vs Control: Proteasome subunit beta type-1 (O09061, GN = Psmb1): 0.5556 | 1MT vs Control: Calsequestrin-1 (O09165, GN = Casq1): 0.9036 | 1MT vs Control: Protein NipSnap homolog 2 (O55126, GN = Gbas): 0.5294 | 1MT vs Control: Voltage-dependent calcium channel gamma-1 subunit (O70578, GN = Cacng1): 0.75 | 1MT vs Control: Reticulon-2 (O70622, GN = Rtn2): 0.3 | 1MT vs Control: Alpha-actinin-3 (O88990, GN = Actn3): 0.8638 | 1MT vs Control: Complement C3 (P01027, GN = C3): 0.5294 | 1MT vs Control: Hemoglobin subunit alpha (P01942, GN = Hba): 0.5714 | 1MT vs Control: Hemoglobin subunit beta-1 (P02088, GN = Hbb-b1): 0.688 | 1MT vs Control: Myoglobin (P04247, GN = Mb): 0.381 | 1MT vs Control: Myosin light chain 1/3, skeletal muscle isoform (P05977, GN = Myl1): 0.7007 | 1MT vs Control: Serum albumin (P07724, GN = Alb): 0.8778 | 1MT vs Control: Serine protease inhibitor A3K (P07759, GN = Serpina3k): 0.5238 | 1MT vs Control: Eukaryotic initiation factor 4A-II (P10630, GN = Eif4a2): 0.6 | 1MT vs Control: Thioredoxin (P10639, GN = Txn): 0.6154 | 1MT vs Control: Heat shock protein beta-1 (P14602, GN = Hspb1): 0.5385 | 1MT vs Control: Annexin A6 (P14824, GN = Anxa6): 0.7045 | 1MT vs Control: Cathepsin D (P18242, GN = Ctsd): 0.8 | 1MT vs Control: Parvalbumin alpha (P32848, GN = Pvalb): 0.7209 | 1MT vs Control: Peroxiredoxin-1 (P35700, GN = Prdx1): 0.9138 | 1MT vs Control: Stress-70 protein, mitochondrial (P38647, GN = Hspa9): 0.4 | 1MT vs Control: ATP synthase subunit beta, mitochondrial (P56480, GN = Atp5b): 0.6321 | 1MT vs Control: Elongation factor 1-delta (P57776, GN = Eef1d): 0.8 | 1MT vs Control: 14-3-3 protein gamma (P61982, GN = Ywhag): 0.5417 | 1MT vs Control: Cytochrome c, somatic (P62897, GN = Cycs): 0.7778 | 1MT vs Control: Profilin-1 (P62962, GN = Pfn1): 0.8333 | 1MT vs Control: 60 kDa heat shock protein, mitochondrial (P63038, GN = Hspd1): 0.2222 | 1MT vs Control: Eukaryotic translation initiation factor 5A-1 (P63242, GN = Eif5a): 0.8936 | 1MT vs Control: Spermine synthase (P97355, GN = Sms): 0.5455 | 1MT vs Control: Myosin regulatory light chain 2, skeletal muscle isoform (P97457, GN = Mylpf): 0.6453 | 1MT vs Control: 60S acidic ribosomal protein P2 (P99027, GN = Rplp2): 0.7143 | 1MT vs Control: Tripartite motif-containing protein 72 (Q1XH17, GN = Trim72): 0.9048 | 1MT vs Control: Secernin-3 (Q3TMH2, GN = Scrn3): 0.6667 | 1MT vs Control: Trimeric intracellular cation channel type A (Q3TMP8, GN = Tmem38a): 0.6923 | 1MT vs Control: PDZ and LIM domain protein 5 (Q8CI51, GN = Pdlim5): 0.6667 | 1MT vs Control: Phosphate carrier protein, mitochondrial (Q8VEM8, GN = Slc25a3): 0.3333 | 1MT vs Control: Bifunctional purine biosynthesis protein PURH (Q9CWJ9, GN = Atic): 0.8571 | 1MT vs Control: Cytochrome b-c1 complex subunit 1, mitochondrial (Q9CZ13, GN = Uqcrc1): 0.25 | 1MT vs Control: Citrate synthase, mitochondrial (Q9CZU6, GN = Cs): 0.5333 | 1MT vs Control: 60S ribosomal protein L4 (Q9D8E6, GN = Rpl4): 0.6667 | 1MT vs Control: Cytochrome b-c1 complex subunit 2, mitochondrial (Q9DB77, GN = Uqcrc2): 0.3958 | 1MT vs Control: Electron transfer flavoprotein subunit beta (Q9DCW4, GN = Etfb): 0.5 | 1MT vs Control: Plectin (Q9QXS1, GN = Plec): 0.4894 | 1MT vs Control: Vesicle-associated membrane protein-associated protein B (Q9QY76, GN = Vapb): 0.5333 | 1MT vs Control: Proteasome subunit alpha type-1 (Q9R1P4, GN = Psma1): 0.375 | 1MT vs Control: Glycogen [starch] synthase, muscle (Q9Z1E4, GN = Gys1): 0.6275 | 1MT vs Control: Nucleosome assembly protein 1-like 4 (Q78ZA7, GN = Nap1l4): 0.8571 | 1MT vs Control: Hemopexin (Q91X72, GN = Hpx): 0.7391
